In patent US11209582B2, “Composition, curable composition, cured film, near infrared cut filter, infrared transmitting filter, solid image pickup element, infrared sensor, and camera module” (FUJIFILM Corporation, priority 2016, dated 2021):

Experiment: Absorption spectrum in solution (absorption maximum λmax, absorption coefficient)
Assay type: physicochemical
Settings: not given
From the text: It is preferable that the compound represented by Formula (1) is a compound having an absorption maximum in a wavelength range of 700 to 1200 nm. In addition, a ratio A1/A2 of an absorbance A1 at a wavelength of 500 nm to an absorbance A2 at the absorption maximum is preferably 0.1 or lower and more preferably 0.05 or lower. The absorbance of the compound is a value obtained from the absorption spectrum of the compound in the solution. Examples of a measurement solvent used for the measurement of the absorption spectrum of the compound represented by Formula (1) in the solution include chloroform, dimethyl sulfoxide, and tetrahydrofuran. In a case where the compound represented by Formula (1) is soluble in chloroform, chloroform is used as the measurement solvent. In addition, in a case where the compound represented by Formula (1) is not soluble in chloroform and is soluble in dimethyl sulfoxide or tetrahydrofuran, dimethyl sulfoxide or tetrahydrofuran is used as the measurement solvent.

| SMILES | gram absorption coefficient [L/g/cm] | molar absorption coefficient [L/mol/cm] |
| --- | --- | --- |
| COc1ccc2sc(C(C#N)=c3c4c(-c5ccc(O)cc5)n(B(c5ccccc5)c5ccccc5)c(=C(C#N)c5nc6cc(OC)ccc6s5)c4c(-c4ccc(O)cc4)n3B(c3ccccc3)c3ccccc3)nc2c1 [A-15] | 200 | 185000 |

Same assay, conditions: in chloroform

| SMILES | λmax (absorption maximum) [nm] |
| --- | --- |
| CN1C(=O)c2ccc(C(=O)Oc3ccc(-c4c5c(=C(C#N)c6cnc7cc(Cl)c(Cl)cc7n6)n(B(c6ccccc6)c6ccccc6)c(-c6ccc(OC(=O)c7ccc8c(c7)C(=O)N(C)C8=O)cc6)c5c(=C(C#N)c5cnc6cc(Cl)c(Cl)cc6n5)n4B(c4ccccc4)c4ccccc4)cc3)cc2C1=O [A-514] | 883 |
| CCC(C)COc1cccc(-c2c3c(=C(C#N)c4nc5cc(C)c(C)cc5s4)n(B(c4ccccc4)c4ccccc4)c(-c4cccc(OCC(C)CC)c4)c3c(=C(C#N)c3nc4cc(C)c(C)cc4s3)n2B(c2ccccc2)c2ccccc2)c1 (centres unmarked) [A-30] | 795 |
| CCC(C)COc1ccc(-c2c3/c(=C(\C#N)c4cnc5ccccc5n4)n(B(c4ccccc4)c4ccccc4)c(-c4ccc(OCC(C)CC)cc4)c3/c(=C(\C#N)c3cnc4ccccc4n3)n2B(c2ccccc2)c2ccccc2)cc1 (centres unmarked) [A-201] | 862 |
| CCC(C)COc1ccc(-c2c3c(=C(C#N)c4nc5cc(C)c(C)cc5s4)n(B(c4ccccc4)c4ccccc4)c(-c4ccc(OCC(C)CC)cc4)c3c(=C(C#N)c3nc4cc(C)c(C)cc4s3)n2B(c2ccccc2)c2ccccc2)cc1 (centres unmarked) [A-6] | 794 |
| CCC(C)COc1ccc(-c2c3c(=C(C#N)c4nc5ccc(OC)cc5s4)n(B(c4ccccc4)c4ccccc4)c(-c4ccc(OCC(C)CC)cc4)c3c(=C(C#N)c3nc4ccc(OC)cc4s3)n2B(c2ccccc2)c2ccccc2)cc1 (centres unmarked) [A-8] | 802 |
| CCC(C)COc1ccc(-c2c3c(=C(C#N)c4nc5ccccc5s4)n(B4Oc5ccccc5O4)c(-c4ccc(OCC(C)CC)cc4)c3c(=C(C#N)c3nc4ccccc4s3)n2B2Oc3ccccc3O2)cc1 (centres unmarked) [A-60] | 717 |
| CCN(CC)CCCN1C(=O)c2ccc(C(=O)Oc3ccc(-c4c5/c(=C(\C#N)c6cnc7cc(Cl)c(Cl)cc7n6)n(B(c6ccccc6)c6ccccc6)c(-c6ccc(OC(=O)c7ccc8c(c7)C(=O)N(CCCN(CC)CC)C8=O)cc6)c5/c(=C(\C#N)c5cnc6cc(Cl)c(Cl)cc6n5)n4B(c4ccccc4)c4ccccc4)cc3)cc2C1=O [B-644] | 883 |
| COc1ccc2sc(C(C#N)=c3c4c(-c5ccc(OC(=O)c6ccccc6)cc5)n(B(c5ccccc5)c5ccccc5)c(=C(C#N)c5nc6cc(OC)ccc6s5)c4c(-c4ccc(OC(=O)c5ccccc5)cc4)n3B(c3ccccc3)c3ccccc3)nc2c1 [A-81] | 800 |
| CCC(C)COc1cccc(-c2c3c(=C(C#N)c4nc5ccccc5s4)n(B(c4ccccc4)c4ccccc4)c(-c4cccc(OCC(C)CC)c4)c3c(=C(C#N)c3nc4ccccc4s3)n2B(c2ccccc2)c2ccccc2)c1 (centres unmarked) [A-25] | 782 |

Second part, the compound after the results:

| λmax (absorption maximum) [nm] | SMILES |
| --- | --- |
| 780 | CCC(C)COc1ccc(-c2c3c(=C(C#N)c4nc5ccccc5s4)n(B(c4ccccc4)c4ccccc4)c(-c4ccc(OCC(C)CC)cc4)c3c(=C(C#N)c3nc4ccccc4s3)n2B(c2ccccc2)c2ccccc2)cc1 (centres unmarked) [A-1] |
| 788 | CCC(C)COc1ccc(-c2c3c(=C(C#N)c4nc5ccc(C)cc5s4)n(B(c4ccccc4)c4ccccc4)c(-c4ccc(OCC(C)CC)cc4)c3c(=C(C#N)c3nc4ccc(C)cc4s3)n2B(c2ccccc2)c2ccccc2)cc1 (centres unmarked) [A-5] |
| 786 | CCC(C)COc1ccc(-c2c3c(=C(C#N)c4nc5ccc(Cl)cc5s4)n(B(c4ccccc4)c4ccccc4)c(-c4ccc(OCC(C)CC)cc4)c3c(=C(C#N)c3nc4ccc(Cl)cc4s3)n2B(c2ccccc2)c2ccccc2)cc1 (centres unmarked) [A-3] |
| 794 | CCC(C)COc1ccc(-c2c3c(=C(C#N)c4nc5cc(OC)ccc5s4)n(B(c4ccccc4)c4ccccc4)c(-c4ccc(OCC(C)CC)cc4)c3c(=C(C#N)c3nc4cc(OC)ccc4s3)n2B(c2ccccc2)c2ccccc2)cc1 (centres unmarked) [A-7] |
| 782 | CCC(C)COc1ccc(-c2c3c(=C(C#N)c4nc5cc(Cl)ccc5s4)n(B(c4ccccc4)c4ccccc4)c(-c4ccc(OCC(C)CC)cc4)c3c(=C(C#N)c3nc4cc(Cl)ccc4s3)n2B(c2ccccc2)c2ccccc2)cc1 (centres unmarked) [A-2] |
| 785 | CCC(C)COc1ccc(-c2c3c(=C(C#N)c4nc5cc(C)ccc5s4)n(B(c4ccccc4)c4ccccc4)c(-c4ccc(OCC(C)CC)cc4)c3c(=C(C#N)c3nc4cc(C)ccc4s3)n2B(c2ccccc2)c2ccccc2)cc1 (centres unmarked) [A-4] |

Same assay, conditions: in dimethyl sulfoxide (DMSO)

| SMILES | λmax (absorption maximum) [nm] |
| --- | --- |
| N#CC(c1nc2ccccc2s1)=c1c2c(-c3ccc(O)cc3)n(B(c3ccccc3)c3ccccc3)c(=C(C#N)c3nc4ccccc4s3)c2c(-c2ccc(O)cc2)n1B(c1ccccc1)c1ccccc1 [A-9] | 782 |
| Cc1cc2nc(C(C#N)=c3c4c(-c5ccc(O)cc5)n(B(c5ccccc5)c5ccccc5)c(=C(C#N)c5nc6cc(C)c(C)cc6s5)c4c(-c4ccc(O)cc4)n3B(c3ccccc3)c3ccccc3)sc2cc1C [A-14] | 795 |
| N#CC(c1nc2cc(Cl)ccc2s1)=c1c2c(-c3ccc(O)cc3)n(B(c3ccccc3)c3ccccc3)c(=C(C#N)c3nc4cc(Cl)ccc4s3)c2c(-c2ccc(O)cc2)n1B(c1ccccc1)c1ccccc1 [A-10] | 782 |
| COc1ccc2sc(C(C#N)=c3c4c(-c5ccc(O)cc5)n(B(c5ccccc5)c5ccccc5)c(=C(C#N)c5nc6cc(OC)ccc6s5)c4c(-c4ccc(O)cc4)n3B(c3ccccc3)c3ccccc3)nc2c1 [A-15] | 795 |

Experiment: Measurement of solubility in solvent at 25° C.
Assay type: physicochemical
Settings: organic solvent or mixture, thermodynamic from solid; in propylene glycol monomethyl ether acetate and 2-butanol at 25° C.
Procedure: <Measurement of Solubility>
A measurement sample was added to a solvent at 25° C. under the atmospheric pressure, the solution was stirred for 1 hour, and the solubility of the measurement sample in the solvent was obtained.

| SMILES | solubility at 1 h [µg/mL] |
| --- | --- |
| N#C/C(c1cnc2cc(Cl)c(Cl)cc2n1)=c1\c2c(-c3ccc(OC(=O)c4ccc5c(c4)C(=O)N(CCCS(=O)(=O)O)C5=O)cc3)n(B(c3ccccc3)c3ccccc3)/c(=C(/C#N)c3cnc4cc(Cl)c(Cl)cc4n3)c2c(-c2ccc(OC(=O)c3ccc4c(c3)C(=O)N(CCCS(=O)(=O)O)C4=O)cc2)n1B(c1ccccc1)c1ccccc1 [B-634] | < 100 |
| CCN(CC)CCCN1C(=O)c2ccc(C(=O)Oc3ccc(-c4c5/c(=C(\C#N)c6cnc7cc(Cl)c(Cl)cc7n6)n(B(c6ccccc6)c6ccccc6)c(-c6ccc(OC(=O)c7ccc8c(c7)C(=O)N(CCCN(CC)CC)C8=O)cc6)c5/c(=C(\C#N)c5cnc6cc(Cl)c(Cl)cc6n5)n4B(c4ccccc4)c4ccccc4)cc3)cc2C1=O [B-644] | < 100 |
